This is an account of results in patent publication US10016438B2, “Bicyclic heterocycles as FGFR4 inhibitors” (Incyte Corporation, priority 2015, dated 2018).

This test addresses FGFR4 (Homo sapiens (Human), UniProt P22455). Nature of the test: FGFR Enzymatic Assay (FRET peptide phosphorylation), FGFR4. The following applies: IC50 ratio showing FGFR4 selectivity.
The mark [1] stands for this setting: pre-incubated for 5 to 10 minutes.

Some results are limits rather than exact numbers.

FGFR4, sequence (P22455 22-802): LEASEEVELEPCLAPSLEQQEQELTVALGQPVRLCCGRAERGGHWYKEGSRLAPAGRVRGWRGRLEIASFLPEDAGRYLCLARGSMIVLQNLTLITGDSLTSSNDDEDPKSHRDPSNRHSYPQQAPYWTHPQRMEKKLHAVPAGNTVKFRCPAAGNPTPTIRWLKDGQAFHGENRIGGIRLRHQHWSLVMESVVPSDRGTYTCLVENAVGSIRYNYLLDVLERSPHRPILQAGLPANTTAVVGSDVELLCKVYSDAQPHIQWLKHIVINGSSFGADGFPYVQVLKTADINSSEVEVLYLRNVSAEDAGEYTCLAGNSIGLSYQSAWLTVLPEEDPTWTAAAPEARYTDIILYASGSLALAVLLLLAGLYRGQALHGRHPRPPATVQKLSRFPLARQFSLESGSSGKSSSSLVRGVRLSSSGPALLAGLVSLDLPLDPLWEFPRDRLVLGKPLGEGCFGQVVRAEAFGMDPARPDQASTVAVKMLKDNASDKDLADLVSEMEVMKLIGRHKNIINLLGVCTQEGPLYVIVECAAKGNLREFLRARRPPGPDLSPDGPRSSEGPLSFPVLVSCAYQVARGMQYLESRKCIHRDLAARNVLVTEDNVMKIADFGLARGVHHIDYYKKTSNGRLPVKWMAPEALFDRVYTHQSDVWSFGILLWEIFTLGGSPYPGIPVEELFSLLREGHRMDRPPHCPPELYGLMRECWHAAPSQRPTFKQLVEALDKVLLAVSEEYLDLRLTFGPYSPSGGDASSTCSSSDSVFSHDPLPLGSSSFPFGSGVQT
From the text: The enzymes were purchased from Millipore or Invitrogen.
GraphPad prism3 was used to analyze the data. The IC50 values were derived by fitting the data to the equation for a sigmoidal dose-response with a variable slope. Y=Bottom+(Top−Bottom)/(1+10^((Log IC50−X)*HillSlope)) where X is the logarithm of concentration and Y is the response.

`C=CC(=O)Nc1cn(CC2CCOCC2)nc1-c1cc2c(cn1)CN(c1c(F)c(OC)cc(OC)c1F)C(=O)C21CC1` [Example 35, N-(3-(2′-(2,6-difluoro-3,5-dimethoxyphenyl)-3′-oxo-2′,3′-dihydro-1′H-spiro[cyclopropane-1,4′-[2,7]naphthyridine]-6′-yl)-1-((tetrahydro-2H-pyran-4-yl)methyl)-1H-pyrazol-4-yl)acrylamide]: for the setting “pre-incubated for 4 hours”, the FGFR1/FGFR4 was greater than 100, the FGFR2/FGFR4 is recorded as greater than 100 and the FGFR3/FGFR4 is on record as greater than 100.
Take `C=CC(=O)Nc1cc(-c2cc3c(cn2)CN(c2c(F)c(OC)cc(OC)c2F)C(=O)C32CC2)cc(N2CCOCC2)c1` [Example 10, N-{3-[2′-(2,6-difluoro-3,5-dimethoxyphenyl)-3′-oxo-2′,3′-dihydro-1′H-spiro[cyclopropane-1,4′-[2,7]naphthyridin]-6′-yl]-5-morpholin-4-ylphenyl}acrylamide]: under setting [1], the FGFR1/FGFR4 is on record as greater than 100, the FGFR2/FGFR4 is greater than 100 and the FGFR3/FGFR4 was greater than 100. In addition, for the setting “pre-incubated for 4 hours”, the FGFR1/FGFR4 is greater than 100, the FGFR2/FGFR4 was greater than 100 and the FGFR3/FGFR4 is reported as greater than 100.
For the molecule `C=CC(=O)Nc1cnn(CCOC)c1-c1cc2c(cn1)CN(c1c(F)c(OC)cc(OC)c1F)C(=O)C21CC1` [Example 15, N-(5-(2′-(2,6-difluoro-3,5-dimethoxyphenyl)-3′-oxo-2′,3′-dihydro-1′H-spiro[cyclopropane-1,4′-[2,7]naphthyridine]-6′-yl)-1-(2-methoxyethyl)-1H-pyrazol-4-yl)acrylamide], where the note is “pre-incubated for 4 hours”, the FGFR1/FGFR4 is greater than 100, the FGFR2/FGFR4 is reported as greater than 100 and the FGFR3/FGFR4 is greater than 100.
With `C=CC(=O)Nc1cnc(C)c(-c2cc3c(cn2)CN(c2c(F)c(OC)cc(OC)c2F)C(=O)C32CC2)c1` [Example 7, N-(5-(2′-(2,6-difluoro-3,5-dimethoxyphenyl)-3′-oxo-2′,3′-dihydro-1′H-spiro[cyclopropane-1,4′-[2,7]naphthyridine]-6′-yl)-6-methylpyridin-3-yl)acrylamide], under setting [1], the FGFR1/FGFR4 is reported as greater than 100, the FGFR2/FGFR4 was greater than 100 and the FGFR3/FGFR4 is greater than 100. For the setting “pre-incubated for 4 hours”, the FGFR1/FGFR4 is given as greater than 100, the FGFR2/FGFR4 is reported as greater than 100 and the FGFR3/FGFR4 is on record as greater than 100.
Turning to `C=CC(=O)Nc1ccc(C)c(-c2cc3c(cn2)CN(c2c(F)c(OC)cc(OC)c2F)C(=O)C32CC2)c1` [Example 2, N-(3-(2′-(2,6-difluoro-3,5-dimethoxyphenyl)-3′-oxo-2′,3′-dihydro-1′H-spiro[cyclopropane-1,4′-[2,7]naphthyridine]-6′-yl)-4-methylphenyl)acrylamide], under setting [1], the FGFR1/FGFR4 is given as greater than 100, the FGFR2/FGFR4 is greater than 100 and the FGFR3/FGFR4 is given as greater than 100. Besides, for the setting “pre-incubated for 4 hours”, the FGFR1/FGFR4 is greater than 100, the FGFR2/FGFR4 is on record as greater than 100 and the FGFR3/FGFR4 was greater than 100.
As to `C=CC(=O)Nc1cn(CCN2CCOCC2)nc1-c1cc2c(cn1)CN(c1c(F)c(OC)cc(OC)c1F)C(=O)C21CC1` [Example 34, N-(3-(2′-(2,6-difluoro-3,5-dimethoxyphenyl)-3′-oxo-2′,3′-dihydro-1′H-spiro[cyclopropane-1,4′-[2,7]naphthyridine]-6′-yl)-1-(2-morpholinoethyl)-1H-pyrazol-4-yl)acrylamide], for the setting “pre-incubated for 4 hours”, the FGFR1/FGFR4 is listed as greater than 100, the FGFR2/FGFR4 is recorded as greater than 100 and the FGFR3/FGFR4 was greater than 100.
Consider `C=CC(=O)Nc1cnn(Cc2ccon2)c1-c1cc2c(cn1)CN(c1c(F)c(OC)cc(OC)c1F)C(=O)C21CC1` [Example 25, N-(5-(2′-(2,6-difluoro-3,5-dimethoxyphenyl)-3′-oxo-2′,3′-dihydro-1′H-spiro[cyclopropane-1,4′-[2,7]naphthyridine]-6′-yl)-1-(isoxazol-3-ylmethyl)-1H-pyrazol-4-yl)acrylamide], for which, under “pre-incubated for 4 hours”, the FGFR1/FGFR4 is on record as greater than 100, the FGFR2/FGFR4 was greater than 100 and the FGFR3/FGFR4 is greater than 100.
As for `C=CC(=O)Nc1cnn(C[C@@H]2CCOC2)c1-c1cc2c(cn1)CN(c1c(F)c(OC)cc(OC)c1F)C(=O)C21CC1` [Example 28, (S)-N-(5-(2′-(2,6-difluoro-3,5-dimethoxyphenyl)-3′-oxo-2′,3′-dihydro-1′H-spiro[cyclopropane-1,4′-[2,7]naphthyridine]-6′-yl)-1-((tetrahydrofuran-3-yl)methyl)-1H-pyrazol-4-yl)acrylamide], where the note is “pre-incubated for 4 hours”, the FGFR1/FGFR4 is recorded as greater than 100, the FGFR2/FGFR4 was greater than 100 and the FGFR3/FGFR4 is recorded as greater than 100.
With `C=CC(=O)Nc1cnn(C[C@H]2CCCO2)c1-c1cc2c(cn1)CN(c1c(F)c(OC)cc(OC)c1F)C(=O)C21CC1` [Example 30, (R)-N-(5-(2′-(2,6-difluoro-3,5-dimethoxyphenyl)-3′-oxo-2′,3′-dihydro-1′H-spiro[cyclopropane-1,4′-[2,7]naphthyridine]-6′-yl)-1-((tetrahydrofuran-2-yl)methyl)-1H-pyrazol-4-yl)acrylamide], under “pre-incubated for 4 hours”, the FGFR1/FGFR4 is given as greater than 100, the FGFR2/FGFR4 was greater than 100 and the FGFR3/FGFR4 is given as greater than 100.
Regarding `C=CC(=O)Nc1cnn(Cc2ccncc2)c1-c1cc2c(cn1)CN(c1c(F)c(OC)cc(OC)c1F)C(=O)C21CC1` [Example 21, N-(5-(2′-(2,6-difluoro-3,5-dimethoxyphenyl)-3′-oxo-2′,3′-dihydro-1′H-spiro[cyclopropane-1,4′-[2,7]naphthyridine]-6′-yl)-1-(pyridin-4-ylmethyl)-1H-pyrazol-4-yl)acrylamide], for the setting “pre-incubated for 4 hours”, the FGFR1/FGFR4 is greater than 100, the FGFR2/FGFR4 is listed as greater than 50 and the FGFR3/FGFR4 is on record as greater than 100.
Regarding `C=CC(=O)Nc1ccc(C)c(-c2ncc3c(n2)C2(CC2)C(=O)N(c2c(F)c(OC)cc(OC)c2F)C3)c1` [Example 37, N-(3-(6′-(2,6-difluoro-3,5-dimethoxyphenyl)-7′-oxo-6′,7′-dihydro-5′H-spiro[cyclopropane-1,8′-pyrido[4,3-d]pyrimidine]-2′-yl)-4-methylphenyl)acrylamide], under “pre-incubated for 4 hours”, the FGFR1/FGFR4 was greater than 100, the FGFR2/FGFR4 is greater than 100 and the FGFR3/FGFR4 is greater than 100.
Turning to `C=CC(=O)Nc1cnn(C[C@H]2CCOC2)c1-c1cc2c(cn1)CN(c1c(F)c(OC)cc(OC)c1F)C(=O)C21CC1` [Example 29, (R)-N-(5-(2′-(2,6-difluoro-3,5-dimethoxyphenyl)-3′-oxo-2′,3′-dihydro-1′H-spiro[cyclopropane-1,4′-[2,7]naphthyridine]-6′-yl)-1-((tetrahydrofuran-3-yl)methyl)-1H-pyrazol-4-yl)acrylamide], for the setting “pre-incubated for 4 hours”, the FGFR1/FGFR4 is on record as greater than 100, the FGFR2/FGFR4 is greater than 100 and the FGFR3/FGFR4 is greater than 100.
Regarding `C=CC(=O)Nc1cnn(C2CCOCC2)c1-c1cc2c(cn1)CN(c1c(F)c(OC)cc(OC)c1F)C(=O)C21CC1` [Example 18, N-(5-(2′-(2,6-difluoro-3,5-dimethoxyphenyl)-3′-oxo-2′,3′-dihydro-1′H-spiro[cyclopropane-1,4′-[2,7]naphthyridine]-6′-yl)-1-(tetrahydro-2H-pyran-4-yl)-1H-pyrazol-4-yl)acrylamide], for the setting “pre-incubated for 4 hours”, the FGFR1/FGFR4 was greater than 100, the FGFR2/FGFR4 was greater than 50 and the FGFR3/FGFR4 is greater than 100.
On to `C=CC(=O)Nc1cn(CCOC(F)(F)F)nc1-c1cc2c(cn1)CN(c1c(F)c(OC)cc(OC)c1F)C(=O)C21CC1` [Example 33, N-(3-(2′-(2,6-difluoro-3,5-dimethoxyphenyl)-3′-oxo-2′,3′-dihydro-1′H-spiro[cyclopropane-1,4′-[2,7]naphthyridine]-6′-yl)-1-(2-(trifluoromethoxy)ethyl)-1H-pyrazol-4-yl)acrylamide], for which, where the note is “pre-incubated for 4 hours”, the FGFR1/FGFR4 is reported as greater than 100, the FGFR2/FGFR4 is listed as greater than 100 and the FGFR3/FGFR4 is greater than 100.
As to `C=CC(=O)Nc1cc(-c2cc3c(cn2)CN(c2c(F)c(OC)cc(OC)c2F)C(=O)C32CC2)c(C)cc1F` [Example 6, N-(5-(2′-(2,6-difluoro-3,5-dimethoxyphenyl)-3′-oxo-2′,3′-dihydro-1′H-spiro[cyclopropane-1,4′-[2,7]naphthyridine]-6′-yl)-2-fluoro-4-methylphenyl)acrylamide], under setting [1], the FGFR1/FGFR4 is greater than 100, the FGFR2/FGFR4 is greater than 100 and the FGFR3/FGFR4 is recorded as greater than 100. In addition, for the setting “pre-incubated for 4 hours”, the FGFR1/FGFR4 was greater than 100, the FGFR2/FGFR4 was greater than 100 and the FGFR3/FGFR4 is greater than 100.
As for `C=CC(=O)N1CCCC(c2cc3c(cn2)CN(c2c(F)c(OC)cc(OC)c2F)C(=O)C32CC2)C1` (stereo not drawn) [Example 8, 6′-(1-acryloylpiperidin-3-yl)-2′-(2,6-difluoro-3,5-dimethoxyphenyl)-1′H-spiro[cyclopropane-1,4′-[2,7]naphthyridin]-3′(2′H)-one], under setting [1], the FGFR1/FGFR4 is greater than 5, the FGFR2/FGFR4 is greater than 1 and the FGFR3/FGFR4 is listed as greater than 1. Under “pre-incubated for 4 hours”, the FGFR1/FGFR4 was greater than 10, the FGFR2/FGFR4 is greater than 2 and the FGFR3/FGFR4 is on record as greater than 2.
In the case of `C=CC(=O)Nc1cn(CCOC)nc1-c1cc2c(cn1)CN(c1c(F)c(OC)cc(OC)c1F)C(=O)C21CC1` [Example 32, N-(3-(2′-(2,6-difluoro-3,5-dimethoxyphenyl)-3′-oxo-2′,3′-dihydro-1′H-spiro[cyclopropane-1,4′-[2,7]naphthyridine]-6′-yl)-1-(2-methoxyethyl)-1H-pyrazol-4-yl)acrylamide], under “pre-incubated for 4 hours”, the FGFR1/FGFR4 is given as greater than 100, the FGFR2/FGFR4 is listed as greater than 100 and the FGFR3/FGFR4 was greater than 100.
In the case of `C=CC(=O)Nc1cnn(CCN2CCOCC2)c1-c1cc2c(cn1)CN(c1c(F)c(OC)cc(OC)c1F)C(=O)C21CC1` [Example 19, N-(5-(2′-(2,6-difluoro-3,5-dimethoxyphenyl)-3′-oxo-2′,3′-dihydro-1′H-spiro[cyclopropane-1,4′-[2,7]naphthyridine]-6′-yl)-1-(2-morpholinoethyl)-1H-pyrazol-4-yl)acrylamide], under “pre-incubated for 4 hours”, the FGFR1/FGFR4 is listed as greater than 100, the FGFR2/FGFR4 was greater than 100 and the FGFR3/FGFR4 was greater than 100.
